# In patent publication US20170143603A1, “PROCESS FOR SEMI-PERMANENT STRAIGHTENING OF CURLY, FRIZZY OR WAVY HAIR” (KAO CORPORATION, priority 2010, published 2017):
# Test: Hair straightening treatment, assessment in words of hair look and permanence
# Set-up: species or system human
# Method: Tests consisted in dissolving 10 grams of glyoxylic acid in 100 milliliters of water.
# In particular, hair was washed with basic pH (7.5-8.5) shampoo, then said glyoxylic acid solution was applied (application can be made with hard bristle brush, spray or in any other way).
# Hair was left in contact with the substance for 60 minute time (+/−30 minutes) and then dried with the hairdryer.
# Once dried, hair was straightened with hair straightening iron heated at average temperature of approximately 200°C., +/−50° C.
# Finally, hair was rinsed again with water or washed again with shampoo and dried.
# Each substance was tested in a mixture with such glyoxylic acid solution by adding 10 grams of one of the substances listed in table 2 to 100 milliliters of said solution.
# In particular, a hair straightening test was carried out using the formulation of a cosmetic product by INOAR Cosmeticos Ltda of San Paulo, Brazil, known as “Tratamento capillar marroquino”. The product was deprived of its active ingredient for hair straightening.
# 10 grams of glyoxylic acid were added to 100 milliliters of said cosmetic and, after carrying out the same hair treatment operations illustrated in the foregoing pages, the results were identical to the ones achieved using the same percentage ratio of glyoxylic acid in water.
smiles,measurement,setting,value
"O=CC(=O)O [glyoxylic acid, Glyoxylic acid]",hair condition at the end of treatment,10 grams of glyoxylic acid in 100 milliliters of cosmetic “Tratamento capillar marroquino” deprived of its active ingredient,"permanently shiny, straight, volumeless, and soft to touch"
same,hair condition at the end of treatment,"10 grams of glyoxylic acid in 100 milliliters of water, 60 minute contact, iron approximately 200°C.","shiny, straight, volumeless, soft to touch, and especially pleasant"
same,efficacy of treatment maintained over time,"washings, rinsings and dryings in normal use conditions of hair shampoo","at least six washings, rinsings and dryings"
same,result compared with the other buffering agents of the European list,within the process of the invention,best results
